“And” between values parts separate entries of the source, which are not always exact repeats. Equal values may be shown once. Read-outs that look alike come from different tables or passages of the source. Square brackets hold non-standard residues; d marks the D form. Peptide text beside a SMILES is read from it.
Experiments:
[1] = tested on: defibrinated sheep blood (red blood cells); assay: Hemolysis assay; type: cell-based; conditions: 200 µg/mL compound, 20 h incubation at 37 °C with defibrinated sheep blood, PBS 0.002% Tween20, absorbance 415 nm, relative to 0.1% Triton X-100; n=3 technical replicates
Description: Defibrinated sheep blood (Thermo Fisher Scientific) and a phosphate-buffered saline (PBS) buffer containing 0.002% Tween20 were used in this assay. The red blood cells were washed with buffer followed by centrifugation (400 g for 15 min at 4 °C). The red blood cells were then normalized to obtain a positive control read-out around 2.5 at 415 nm to stay in the linear range with the maximum sensitivity. A serial dilution of the compounds (200–1.56 µg/mL, 75 µL) was prepared in a 96-well plate. Each plate contained a positive control (0.1% Triton X-100 final concentration, 75 µL) and the negative control (buffer, 75 µL). After addition of normalized blood cells (75 µL), the plates were incubated for 20 h at 37 °C at 500 rpm. The plates were centrifuged (800× g for 5 min at room temperature). For the next step flat-bottom polystyrene plates were prepared with 100 µL buffer in each well. Aliquots of 25 µL supernatant from the centrifuged plates were then transferred to their respective wells in the flat-bottom plate. Absorbance values where measured at 415 nm and corrected for background (negative control) and transformed to a percentage hemolysis relative to the positive control.

[2] = tested on: E. coli BW25113; type: cell-based, Escherichia coli; conditions: for MSCrif: rifampicin concentration in the combination giving the lowest FICi; for MSCrif / MSCpep: E. coli BW25113; for MICpep: synergist alone, E. coli BW25113, from checkerboard with rifampicin; for MSCpep: synergist concentration in the combination with rifampicin giving the lowest FICi
Description: (§1) All peptides were screened for antimicrobial activity against E. coli BW25113, E. coli ATCC25922, and E. coli W3110. A select group of the peptides was further tested against E. coli mcr-1, E. coli EQASmcr-1 (EQAS 2016 412016126), E. coli EQASmcr-2 (EQAS 2016 KP37), E. coli EQASmcr-3 (EQAS 2017 2013-SQ352), K. pneumoniae ATCC13883, P. aeruginosa ATCC27853, and A. baumannii ATCC17978. The antimicrobial assay was performed according to CLSI guidelines. Bacteria were plated out directly from their glycerol stocks on blood agar plates, incubated overnight at 37 °C, and then kept in the fridge. The blood agar plates were only used for 2 weeks and then replaced.
(§2) One colony from a blood agar plates was inoculated in Lysogeny Broth (LB) at 37 °C until a 0.5 optical density at 600 nm (OD600) was reached (compared to the sterility control of LB). The bacterial suspension was diluted in fresh LB to 2.0 × 10^6 CFU/mL. The serial dilutions were prepared in polypropylene microtiter plates: a stock of the test compounds was prepared with a 2x final concentration in LB. Moreover, 100 µL of the stock was added to the wells of the top row of which 50 µL was used for the serial dilution. The bottom row of each plate was used as the positive (50 µL of LB) and negative controls (100 µL of LB) (6 wells each). Furthermore, 50 µL of the 2.0 × 10^6 CFU/mL bacterial stock was added to each well except for the negative controls, adding up to a total volume of 100 µL per well. The plates were sealed with a breathable seal and incubated for 20 h at 37 °C and 600 rpm.
(§3) Two 96-well plates were required per compound. A serial dilution of the compound was performed on two plates from row A–G using with LB as medium. Row H was filled with 25 µL medium. On a separate plate a negative control (8 wells, 100 μL medium) was prepared. For all concentrations of antibiotic a specific stock was prepared. 25 µL medium was added to the 0 µg/mL antibiotic columns (plate I, column 1–3). Of each antibiotic stock 25 µL was added to three columns to obtain triplicates for every condition. Both plates contained 50 µL in each well to which 50 µL bacterial stock was added (see the protocol of the MIC assays) and the plates were sealed. After incubation for 20 h at 37 °C while shaking, the breathable seals were removed and the density of the bacterial suspensions measured at 600 nm (OD600) using a Tecan Spark plate reader. The OD600 values were transformed to a 2D gradient with the negative control as minimum and the positive control (wells G1, G2, and G3) as maximum in excel. The FICi was calculated using Equation (1) with a FICi ≤ 0.5 indicating synergy. FICi = (MSCa/MICa) + (MSCb/MICb),(1)
(§4) Calculation of the FICi: MSCa = concentration of the […] in combination with the antibiotic that results in the lowest FICi. MICa = MIC of the antibiotic without synergist (row G). MSCb = concentration of the synergist in combination with the antibiotic that results in the lowest FICi. MICb = MIC of the synergist itself (Column 1–3, plate I).

[3] = tested on: E. coli BW25113; assay: Checkerboard assay with erythromycin; type: cell-based, Escherichia coli; conditions: for MSCery: erythromycin concentration in the combination with the synergist giving the lowest FICi, E. coli BW25113; for MIC of the peptide (MICpep): synergist alone, from checkerboard with erythromycin; for MIC of the peptide (MICpep) / MSCpeptide, minimum synergistic concentration: 20 h 37 °C; for MSCpeptide, minimum synergistic concentration: synergist concentration in the combination with erythromycin giving the lowest FICi, OD600; for FICi: with erythromycin vs E. coli BW25113, synergy defined as FICi ≤ 0.5
Description: as §1, §2, §3, §4

[4] = tested on: E. coli BW25113; assay: microbe, parasite or virus in culture; type: cell-based, Escherichia coli; conditions: antibiotic without synergist, E. coli BW25113
Description: as §1, §2, §3, §4

SMILES | MICpep [2] | MIC of the peptide (MICpep) ([3]; E. coli BW25113, LB) | MIC ([3]; Escherichia coli, antibiotic without synergist, E. coli BW25113, LB, read-out: MIC of erythromycin (MICery)) | MIC of erythromycin (MICery) ([3]; antibiotic without synergist, E. coli BW25113, LB) | MIC ([4]; Escherichia coli, read-out: MIC of novobiocin (MICnovo)) | MIC of novobiocin (MICnovo) [4] | Hemolysis [1] | FICi ([2]; BW25113, 20 h) | MSCrif [2] | MSCpep [2] | MSCery [3] | MSCpeptide, minimum synergistic concentration ([3]; E. coli BW25113, LB) | FICi [3] | FICi ([2]; with rifampicin vs E. coli BW25113, synergy defined as FICi ≤ 0.5)
CC[C@H](C)[C@H](NC(=O)[C@H](Cc1c[nH]c2ccccc12)NC(=O)[C@H](CCCCN)NC(=O)[C@H](CCCCN)NC(=O)[C@H](CC(C)C)NC(=O)[C@H](CCCNC(=N)N)NC(=O)[C@H](Cc1ccccc1)NC(=O)[C@@H](NC(=O)[C@@H](N)Cc1cnc[nH]1)C(C)C)C(=O)N[C@@H](CCC(N)=O)C(=O)N[C@@H](CCCCN)C(=O)N[C@H](C(=O)N[C@H](C(=O)N[C@@H](CC(=O)O)C(=O)N[C@@H](CCC(N)=O)C(=O)N[C@@H](Cc1ccccc1)C(=O)NCC(=O)N[C@@H](CCC(=O)O)C(=O)O)[C@@H](C)CC)C(C)C [peptide 2] (H-HVFRLKKWIQKVIDQFGE-OH) |  |  |  |  |  |  | 8.7% and 9% |  |  |  |  |  |  | 
CC[C@@H](C)[C@@H](N)C(=O)N[C@@H](C(=O)N[C@H](CCCCN)C(=O)N[C@H](CCC(N)=O)C(=O)N[C@@H](C(=O)N[C@H](Cc1c[nH]c2ccccc12)C(=O)N[C@H](CCCCN)C(=O)N[C@H](CCCCN)C(=O)N[C@H](CC(C)C)C(=O)N[C@H](CCCNC(=N)N)C(=O)N[C@H](Cc1ccccc1)C(=O)N[C@@H](C(N)=O)C(C)C)[C@H](C)CC)C(C)C [peptide 22] (H-[dI][dV][dK][dQ][dI][dW][dK][dK][dL][dR][dF][dV]-NH2) | 50 µg/mL | 100 µg/mL |  |  |  |  | 3.2% and 3% | 0.1406 | 0.25 µg/mL | 6.25 µg/mL | 6.25 µg/mL | 6.25 µg/mL |  | 
CC[C@H](C)[C@H](NC(=O)[C@H](Cc1c[nH]c2ccccc12)NC(=O)[C@H](CCCCN)NC(=O)[C@H](CCCCN)NC(=O)[C@H](CC(C)C)NC(=O)[C@H](CCCNC(=N)N)NC(=O)[C@H](Cc1ccccc1)NC(=O)[C@@H](NC(=O)[C@@H](N)Cc1c[nH]cn1)C(C)C)C(=O)N[C@@H](CCC(N)=O)C(=O)N[C@@H](CCCCN)C(=O)N[C@H](C(=O)N[C@H](C(=O)N[C@@H](CC(=O)O)C(=O)N[C@@H](CCC(N)=O)C(=O)N[C@@H](Cc1ccccc1)C(=O)NCC(=O)N[C@@H](CCC(=O)O)C(=O)O)[C@@H](C)CC)C(C)C [peptide 2] (H-HVFRLKKWIQKVIDQFGE-OH) | 200 µg/mL | 200 µg/mL |  |  |  |  |  |  | 0.5 µg/mL | 50 µg/mL | 25 µg/mL | 50 µg/mL | 0.3750 | 
CC[C@H](C)[C@H](NC(=O)[C@@H](NC(=O)[C@H](CCCCN)NC(=O)[C@H](CCC(N)=O)NC(=O)[C@@H](NC(=O)[C@H](Cc1c[nH]c2ccccc12)NC(=O)[C@H](CCCCN)NC(=O)[C@H](CCCCN)NC(=O)[C@H](CC(C)C)NC(=O)[C@H](CCCNC(=N)N)NC(=O)[C@H](Cc1ccccc1)NC(=O)[C@H](C)N)[C@@H](C)CC)C(C)C)C(N)=O [peptide 8] (H-AFRLKKWIQKVI-NH2) | 12.5 µg/mL | 12.5 µg/mL |  |  |  |  | 1.5% and 2% | 0.1406 |  | 1.563 µg/mL | 12.5 µg/mL | 1.563 µg/mL |  | 

More lines, main results first:

MICpep [2] | MIC of the peptide (MICpep) ([3]; E. coli BW25113, LB) | MIC ([3]; Escherichia coli, antibiotic without synergist, E. coli BW25113, LB, read-out: MIC of erythromycin (MICery)) | MIC of erythromycin (MICery) ([3]; antibiotic without synergist, E. coli BW25113, LB) | MIC ([4]; Escherichia coli, read-out: MIC of novobiocin (MICnovo)) | MIC of novobiocin (MICnovo) [4] | SMILES | Hemolysis [1] | FICi ([2]; BW25113, 20 h) | MSCrif [2] | MSCpep [2] | MSCery [3] | MSCpeptide, minimum synergistic concentration ([3]; E. coli BW25113, LB) | FICi [3] | FICi ([2]; with rifampicin vs E. coli BW25113, synergy defined as FICi ≤ 0.5)
25 µg/mL | 25 µg/mL |  |  |  |  | CC[C@H](C)[C@H](NC(=O)[C@@H](NC(=O)[C@H](CCCCN)NC(=O)[C@H](C)NC(=O)[C@@H](NC(=O)[C@H](Cc1c[nH]c2ccccc12)NC(=O)[C@H](CCCCN)NC(=O)[C@H](CCCCN)NC(=O)[C@H](CC(C)C)NC(=O)[C@H](CCCNC(=N)N)NC(=O)[C@H](Cc1ccccc1)NC(=O)[C@@H](N)C(C)C)[C@@H](C)CC)C(C)C)C(N)=O [compound 16] (H-VFRLKKWIAKVI-NH2) | 3.5% and 4% | 0.2656 |  | 6.25 µg/mL | 12.5 µg/mL | 3.125 µg/mL |  | 
 |  | 100 to 200 µg/mL | > 100 µg/mL and 200 µg/mL |  |  | CC[C@H]1OC(=O)[C@H](C)[C@@H](O[C@H]2C[C@@](C)(OC)[C@@H](O)[C@H](C)O2)[C@H](C)[C@@H](O[C@@H]2O[C@H](C)C[C@H](N(C)C)[C@H]2O)[C@](C)(O)C[C@@H](C)C(=O)[C@H](C)[C@@H](O)[C@]1(C)O [erythromycin, reference compound] |  |  |  |  |  |  |  | 
25 µg/mL | 25 µg/mL |  |  |  |  | CC[C@H](C)[C@H](NC(=O)[C@@H](NC(=O)[C@H](CCCCN)NC(=O)[C@H](CCC(N)=O)NC(=O)[C@@H](NC(=O)[C@H](Cc1c[nH]c2ccccc12)NC(=O)[C@H](CCCCN)NC(=O)[C@H](C)NC(=O)[C@H](CC(C)C)NC(=O)[C@H](CCCNC(=N)N)NC(=O)[C@H](Cc1ccccc1)NC(=O)[C@@H](N)C(C)C)[C@@H](C)CC)C(C)C)C(N)=O [compound 12] (H-VFRLAKWIQKVI-NH2) | 30.2% and 30% |  |  | 12.5 µg/mL | 1.563 µg/mL | 12.5 µg/mL | > 0.5 | > 0.5
> 200 µg/mL | > 200 µg/mL |  |  |  |  | CC[C@H](C)[C@H](NC(=O)[C@@H](NC(=O)[C@H](CCCCN)NC(=O)[C@H](CCC(N)=O)NC(=O)[C@@H](NC(=O)[C@H](Cc1c[nH]c2ccccc12)NC(=O)[C@H](CCCCN)NC(=O)[C@H](CCCCN)NC(=O)[C@H](CC(C)C)NC(=O)[C@H](CCCNC(=N)N)NC(=O)[C@H](Cc1ccccc1)NC(=O)[C@@H](NC(C)=O)C(C)C)[C@@H](C)CC)C(C)C)C(=O)O [peptide 5] (Ac-VFRLKKWIQKVI-OH) | 0.2% and 0% |  | 0.25 µg/mL | 50 µg/mL | 6.25 µg/mL | 50 µg/mL |  | 
 |  |  |  | > 200 µg/mL | > 200 µg/mL | CO[C@@H]1[C@@H](OC(N)=O)[C@@H](O)[C@H](Oc2ccc3c(O)c(NC(=O)c4ccc(O)c(CC=C(C)C)c4)c(=O)oc3c2C)OC1(C)C [novobiocin, reference compound] |  |  |  |  |  |  |  | 
